Measurements published in PMC10463376, “Design, synthesis, in vitro anticancer, molecular docking and SAR studies of new series of pyrrolo[2,3-d]pyrimidine derivatives” (BMC Chemistry, 2023).
Values after ≈ are worked out from the molar mass of the structure shown. “Also recorded” adds a separate entry of the source.

Tests used:
IL-8 = test: RT-qPCR IL-8 mRNA in MCF7; format: cell-based, human; details: MCF7, vs negative control
Procedure: (§1) All of the extractions were conducted on ice with ice-cold reagents. Total RNA from the different cell lines was isolated using Trizol (Invitrogen; Life Technologies, USA) according to the method of Sthoeger et al.. The 260:280 ratios were measured to determine RNA quality after the isolation method was completed according to the manufacturer’s instructions. A high-capacity cDNA reverse transcription kit was used to produce complementary DNA (cDNA) (Applied Biosystems, USA). […] The relative gene expression method (i.e., ΔΔCT) was used to analyze the real-time PCR data, as explained in Applied Biosystem User Bulletin No. 2. Each sample and gene were normalized using the β-actin gene.

[1] = MTT assay, normal cell line BJ1; format: cell-based; details: human, at 100 μg/ml, read-out: MTT cell proliferation mortality assay (%) BJ1
DR5 = test: RT-qPCR DR5 mRNA in MCF7; format: cell-based, human; details: MCF7, vs negative control
Procedure: as §1

DR4 = test: RT-qPCR DR4 mRNA in MCF7; format: cell-based, human; details: MCF7, vs negative control
Procedure: as §1

BAX [2] = test: ELISA BAX in MCF7 cells; format: cell-based, human; details: MCF7 cells treated with IC50; untreated control 4.92
Excerpt: (§2) Elisa assay was used to determine the concentrations of Human caspases-3, -8, Bax, and Bcl2 in PACA2- and A549-treated cells. Also, the concentrations of caspase-8, Bax, and Bcl2 in MCF7-treated cells were detected. The procedures were followed up according to the instructions described in the following kits; Invitrogen human Caspase-3 Elisa Kit, Catalog KHO1091, DRG® human Caspase-8 ELISA Kit, Catalog (EIA-4863), Human Bax ELISA Kit (ab199080) and Human Bcl-2 ELISA Kit (ab119506) respectively. Shortly, the protocol described in the above kits was as followed; at the beginning, all the reagents, samples and standards were prepared. 100 μl of samples or standard were micro pipetted to each well of micro-well strip and kept at room temperature for 2 h. After washing the micro-well strips three times with washing buffer, the prepared antibody (anti-rabbit-IgG-HRP) at a concentration of 100 μl was added to each well at room temperature for 1 h. Then, the micro-well strips were washed again three times. Afterward, the prepared tetramethyl-benzidine (TMB) solution (100 μl) was added to the micro-well strips and kept for 10 min. At last, about 50 μl of stop solution was pipetted to each well to inactivate the enzyme completely. The absorbance of all samples was measured at a wavelength of 460 nm and compared to that of the standard. Curve fitting software was used to plot a standard curve and the concentrations for the unknown samples were measured from the standard curve.

A549 lung cancer cells = test: MTT assay, A549; details: Homo sapiens, A549, 72 h, read-out: MTT cell proliferation mortality assay (%) A549, at 100 μg/ml, 72 h
How it was run: (§3)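 Cells seeded at 10 × 10^4 cells/well, 24 h at 37 ℃/5% CO2, then exposed to compound for 72 h (DMSO <0.2%); MTT ([…]) added for 4 h, formazan dissolved in 10% SDS overnight, absorbance read at 595 nm with 620 nm reference. IC50 as concentration killing 50% of cells; SI = IC50 in BJ1/IC50 in cancer line.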

HePG2 liver cancer cells = test: MTT assay, HePG2; details: Homo sapiens, HepG2, 72 h; for IC50: read-out: IC50 HePG2; for cytotoxicity at 100 µg/mL: read-out: MTT cell proliferation mortality assay (%) HePG2
How it was run: as §3

P53 = test: RT-qPCR P53 mRNA in MCF7; format: cell-based, human; details: MCF7, vs negative control
Procedure: as §1

Bcl-2 = test: RT-qPCR Bcl-2 mRNA in MCF7; format: cell-based, human; details: MCF7, vs negative control
Procedure: as §1

[3] = system: HCT116 colorectal cancer cells; test: MTT assay, HCT116; details: Homo sapiens, HCT-116, 72 h, read-out: MTT cell proliferation mortality assay (%) HCT116, at 100 μg/ml, 72 h
How it was run: as §3

BAX [4] = test: RT-qPCR BAX mRNA in MCF7; format: cell-based, human; details: MCF7, vs negative control
Procedure: as §1

Bcl2 = test: ELISA Bcl2 in MCF7 cells; format: cell-based, human; details: MCF7 cells treated with IC50; untreated control 14.37
Excerpt: as §2

MCF7 breast cancer cells = test: MTT assay, MCF7; details: for IC50 / cytotoxicity at 100 µg/mL: Homo sapiens, MCF7, 72 h; for IC50: read-out: IC50 MCF7
How it was run: as §3

CDK4 = test: RT-qPCR CDK4 mRNA in MCF7; format: cell-based, human; details: MCF7, vs negative control
Procedure: as §1

caspase 8 = test: ELISA caspase 8 in MCF7 cells; format: cell-based, human; details: MCF7 cells treated with IC50; untreated control 3.99
Excerpt: as §2

[5] = system: PACA2 pancreatic cancer cells; test: MTT assay, PACA2; details: Homo sapiens, PaCa-2, 72 h; for cytotoxicity at 100 µg/mL: read-out: MTT cell proliferation mortality assay (%) PACA2
How it was run: as §3

[6] = system: PC3 prostate cancer cells; test: MTT assay, PC3; details: Homo sapiens, 72 h; for IC50: read-out: IC50 PC3; for cytotoxicity at 100 µg/mL: read-out: MTT cell proliferation mortality assay (%) PC3, at 100 μg/ml, 72 h
How it was run: as §3

[7] = read-out: MTT cell proliferation mortality assay (%) MCF7

| Compound | IL-8 mRNA level (IL-8) | cytotoxicity at 72 h, 100 μg/ml [1] [%] | DR5 mRNA level (DR5) | DR4 mRNA level (DR4) | BAX level (ELISA) (BAX [2]) [pg/mL] | cytotoxicity at 100 µg/mL (A549 lung cancer cells) [%] | IC50 (HePG2 liver cancer cells) [µg/mL] | cytotoxicity at 100 µg/mL (HePG2 liver cancer cells) [%] | P53 mRNA level (P53) | Bcl-2 mRNA level (Bcl-2) | cytotoxicity at 100 µg/mL [3] [%] | BAX mRNA level (BAX [4]) | Bcl2 level (ELISA) (Bcl2) [pg/mL] | IC50 (MCF7 breast cancer cells) [µg/mL] | cytotoxicity at 100 µg/mL (MCF7 breast cancer cells; [7]) [%] | CDK4 mRNA level (CDK4) | caspase 8 level (ELISA) (caspase 8) [pg/mL] | cytotoxicity at 100 µg/mL [5] [%] | IC50 [6] [µg/mL] | cytotoxicity at 100 µg/mL [6] [%] | also measured |
| --- | --- | --- | --- | --- | --- | --- | --- | --- | --- | --- | --- | --- | --- | --- | --- | --- | --- | --- | --- | --- | --- |
| NNc1ncnc2c1c(-c1ccc(Br)cc1)c(Cl)n2-c1ccc(Cl)cc1Cl [Compound 14a, 5-(4-bromophenyl)-6-chloro-7-(2,4-dichlorophenyl)-4-hydrazineyl-7H-pyrrolo[2,3-d]pyrimidine] | lowered; also recorded: down-regulated | 30.8 ± 0.2 | increased; also recorded: up-regulated | increased; also recorded: up-regulated | 9.99 | 100 | 37.9 ± 0.9 (≈ 78.4 µM) | 100 | significantly increased; also recorded: up-regulated | down-regulated | 100 | up-regulated | 2.4 | 1.7 ± 0.4 (≈ 3.52 µM) | 100 | lowered; also recorded: down-regulated | 8.76 | 100 |  |  |  |
| COc1ccc(-c2c(Cl)n(-c3ccc(Cl)cc3Cl)c3ncnc(NN)c23)cc1OC [Compound 14b, 6-chloro-7-(2,4-dichlorophenyl)-5-(3,4-dimethoxyphenyl)-4-hydrazineyl-7H-pyrrolo[2,3-d]pyrimidine] | lowered; also recorded: down-regulated |  | increased; also recorded: up-regulated | increased; also recorded: up-regulated | 14.25 | 100 | 17.5 ± 0.8 (≈ 37.7 µM) | 100 | significantly increased; also recorded: up-regulated | down-regulated | 100 | up-regulated | 8.25 | 16.8 ± 0.9 (≈ 36.1 µM) | 94.9 ± 1.1 | lowered; also recorded: down-regulated | 18.263 | 100 | 18.7 ± 0.2 (≈ 40.2 µM) | 100 | cytotoxicity (MCF7 breast cancer cells; read-out: MTT cell proliferation mortality assay (%) MCF7, at 100 μg/ml, 72 h): 80 to 95% |
| COc1ccc(-c2c(Cl)n(-c3ccc(Cl)cc3Cl)c3ncnc(N4CCN(C)CC4)c23)cc1OC [Compound 16b, 6-chloro-7-(2,4-dichlorophenyl)-5-(3,4-dimethoxyphenyl)-4-(4-methylpiperazin-1-yl)-7H-pyrrolo[2,3-d]pyrimidine] | lowered |  | increased | increased | 13.25 | 100 |  |  | up-regulated; also recorded: significantly increased | down-regulated |  | up-regulated | 4.25 | 5.7 ± 0.9 (≈ 10.7 µM) | 100 | lowered | 14.72 | 100 |  |  |  |
| COc1ccc(-c2c(Cl)n(-c3ccc(Cl)cc3Cl)c3ncnc(N4CCOCC4)c23)cc1OC [Compound 18b, 4-(6-chloro-7-(2,4-dichlorophenyl)-5-(3,4-dimethoxyphenyl)-7H-pyrrolo[2,3-d]pyrimidin-4-yl)morpholine] | lowered; also recorded: down-regulated | 20.6 ± 2.1 | increased; also recorded: up-regulated | increased; also recorded: up-regulated | 7.25 | 11.2 ± 0.6 | 28.1 ± 0.4 (≈ 54.1 µM) | 100 | significantly increased; also recorded: up-regulated | down-regulated |  | up-regulated | 9.24 | 3.4 ± 0.3 (≈ 6.54 µM) | 100 | lowered; also recorded: down-regulated | 10.29 | 100 | 19.2 ± 0.9 (≈ 36.9 µM) | 100 | IC50 ([5]; read-out: IC50 PACA2): 15 ± 0.9 µg/mL (≈ 28.9 µM) |
